Experimental data as given in patent US20150322051A1, “Macrocyclic picolinamides as fungicides” (Dow AgroSciences LLC, priority 2014, published 2015).
Where two headings read alike, the source gives them in different places.

Tests used:
[1] = test system: Rhyncosporium secalis (RHYNSE); test: Barley scald (RHYNSE) whole-plant fungicidal test; type: in vivo; details: 1 Day Protectant
Method: (§1) All fungicides were evaluated using the aforementioned method for their activity vs. all target diseases, unless stated otherwise. Wheat leaf blotch and brown rust activity were also evaluated using track spray applications, in which case the fungicides were formulated as EC formulations, containing 0.1% Trycol 5941 in the spray solutions. Wheat plants (variety Yuma) were grown from seed in a greenhouse in 50% mineral soil/50% soil-less Metro mix until the first leaf was fully emerged, with 7-10 seedlings per pot. These plants were inoculated with an aqueous spore suspension of Septoria tritici either prior to or after fungicide treatments. After inoculation the plants were kept in 100% relative humidity (one day in a dark dew chamber followed by two to three days in a lighted dew chamber at 20° C.) to permit spores to germinate and infect the leaf. The plants were then transferred to a greenhouse set at 20° C. for disease to develop. When disease symptoms were fully expressed on the 1st leaves of untreated plants, infection levels were assessed on a scale of 0 to 100 percent disease severity. Percent disease control was calculated using the ratio of disease severity on treated plants relative to untreated plants. Barley seedlings (variety Harrington) were propagated in soil-less Metro mix, with each pot having 8 to 12 plants, and used in the test when first leaf was fully emerged. […]

[2] = test system: Mycosphaerella graminicola; anamorph: Septoria tritici (SEPTTR); test: Leaf blotch of wheat (SEPTTR) whole-plant fungicidal test; type: in vivo; details: Zymoseptoria tritici, topical, low volume (track spray) application, 121.5 g/H
[3] = test system: Blumeria graminis f. sp. hordei; synonym: Erysiphe graminis f. sp. hordei (ERYSGH); test: Barley powdery mildew (ERYSGH) whole-plant fungicidal test; type: in vivo; details: 1 Day Protectant
Method: as §1

[4] = test system: Puccinia triticina; synonym: Puccinia recondita f. sp. tritici (PUCCRT); test: Wheat brown rust (PUCCRT) whole-plant fungicidal test; type: in vivo; details: topical, low volume (track spray) application, 121.5 g/H
[5] = test system: Phakopsora pachyrhizi (PHAKPA); test: Asian soybean rust (PHAKPA) whole-plant fungicidal test
[6] = test system: Venturia inaequalis (VENTIN); test: Apple scab (VENTIN) whole-plant fungicidal test; type: in vivo; details: 1 Day Protectant
[7] = test system: Uncinula necator (UNCINE); test: Grape powdery mildew (UNCINE) whole-plant fungicidal test; type: in vivo; details: 1 Day Protectant
[8] = test system: Erysiphe cichoracearum (ERYSCI); test: Powdery mildew of cucumber (ERYSCI) whole-plant fungicidal test; type: in vivo; details: 1 Day Protectant

CCCC[C@@H]1[C@@H](Cc2ccc(C(F)(F)F)cc2)CCC[C@H](NC(=O)c2nccc(OC)c2OCOC(C)=O)C(=O)O[C@H]1C [Compound 3]
Disease Control at 100 ppm RHYNSE 1DP [1]: B (≦70) | pest or weed control at 121.5 g/ha ([2]; 24 h, 1 Day Protectant, read-out: Low Volume activity at 121.5 g/H SEPTTR 1DP (% disease control rating)): > 70% | pest or weed control at 121.5 g/ha ([2]; 72 h, 3 Day Curative, read-out: Low Volume activity at 121.5 g/H SEPTTR 3DC (% disease control rating)): > 70% | Disease Control at 100 ppm ERYSGH 1DP [3]: A (>70) | pest or weed control at 121.5 g/ha ([4]; 24 h, 1 Day Protectant, read-out: Low Volume activity at 121.5 g/H PUCCRT 1DP (% disease control rating)): > 70% | pest or weed control at 121.5 g/ha ([4]; 72 h, 3 Day Curative, read-out: Low Volume activity at 121.5 g/H PUCCRT 3DC (% disease control rating)): < 70% | Disease Control at 25 ppm PHAKPA 1DP ([5]; 1 Day Protectant): B (≦70) | Disease Control at 25 ppm PHAKPA 3DC ([5]; 3 Day Curative): B (≦70) | Disease Control at 100 ppm VENTIN 1DP [6]: A (>70) | Disease Control at 100 ppm UNCINE 1DP [7]: A (>70) | Disease Control at 100 ppm ERYSCI 1DP [8]: A (>70)
